Test results from the supplement of paper PMC10307832.

These cell lines were tested with C[C@@H](C(=O)N[C@@H](C1CCCCC1)C(=O)N2CCC[C@H]2C(=O)N[C@@H]3[C@@H](CC4=CC=CC=C34)OCC#CC#CCO[C@@H]5CC6=CC=CC=C6[C@@H]5NC(=O)[C@@H]7CCCN7C(=O)[C@H](C8CCCCC8)NC(=O)[C@H](C)NC)NC [AZD5582] + CC1(C)CCC(c2ccc(Cl)cc2)=C(CN2CCN(c3ccc(C(=O)NS(=O)(=O)c4ccc(N[C@H](CCN5CCOCC5)CSc5ccccc5)c(S(=O)(=O)C(F)(F)F)c4)cc3)CC2)C1 [Navitoclax] (partner 0.5 µM) (assay: relative viability (nuclei count vs DMSO), 5 days (fraction); higher = more cells survive). Conditions: first compound 0.001581 µM.
Summary of the method: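 Relative viability equals treated-well nuclei counts divided by vehicle-well nuclei counts. Counts came from 4× images of lung cancer cell lines grown in 1536-well plates for 5 days after pin-tool dosing on the day after seeding. Dosing used one drug alone or a fixed anchor-drug dose plus five library-drug doses (not always all listed) in √10 steps, and values are medians of duplicate plates.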
LC-2-ad gave a relative viability of 0.331.
LK-2 was tested, and the relative viability was 0.754.
LOU-NH91 was tested, and the relative viability was 0.652.
LU99A gave a relative viability of 0.882.
In the case of LXF-289, the relative viability is reported as 0.948.
NCI-H23 was tested, and the relative viability was 0.594.
NCI-H322M was tested, and the relative viability was 1.15.
NCI-H441 showed a relative viability of 0.639.
NCI-H460 was tested, and the relative viability was 1.08.
NCI-H520 gave a relative viability of 1.07.
Work on NCI-H596 yielded a relative viability of 0.811.
Work on NCI-H647 yielded a relative viability of 1.02.
Work on NCI-H838 yielded a relative viability of 1.09.
NCI-H1355 showed a relative viability of 0.926.
NCI-H1395 showed a relative viability of 1.02.
NCI-H1437 gave a relative viability of 1.07.
With NCI-H1650 the relative viability was 1.07.
NCI-H1651 showed a relative viability of 0.981.
Work on NCI-H1666 yielded a relative viability of 0.823.
With NCI-H1734 the relative viability was 0.791.
With NCI-H1755 the relative viability was 0.933.
NCI-H1793 was tested, and the relative viability was 0.475.
In the case of NCI-H1915, the relative viability is reported as 0.777.
NCI-H1944 showed a relative viability of 0.985.
With NCI-H1975 the relative viability was 1.12.
In the case of NCI-H1993, the relative viability is reported as 0.917.
NCI-H2009 was tested, and the relative viability was 1.14.
NCI-H2023 was tested, and the relative viability was 0.962.
NCI-H2085 was tested, and the relative viability was 1.14.
In the case of NCI-H2087, the relative viability is reported as 1.03.
NCI-H2126 showed a relative viability of 0.829.
NCI-H2170 was tested, and the relative viability was 0.551.

Same assay, conditions: first compound 0.005 µM
LC-2-ad showed a relative viability of 0.454.
In the case of LCLC-97TM1, the relative viability is reported as 0.329.
With LK-2 the relative viability was 0.895.
For LOU-NH91, the relative viability was 0.724.
Work on LU99A yielded a relative viability of 0.998.
Cell Line LXF-289 has a relative viability of 0.935.
NCI-H23 showed a relative viability of 0.512.
NCI-H322M was tested, and the relative viability was 1.32.
Work on NCI-H441 yielded a relative viability of 0.543.
Work on NCI-H460 yielded a relative viability of 1.03.
NCI-H520 gave a relative viability of 1.15.
NCI-H596 was tested, and the relative viability was 0.581.
NCI-H647 was tested, and the relative viability was 1.09.
For NCI-H838, the relative viability was 1.2.
Work on NCI-H1355 yielded a relative viability of 0.951.
With NCI-H1395 the relative viability was 1.16.
With NCI-H1437 the relative viability was 1.09.
With NCI-H1650 the relative viability was 1.04.
Cell Line NCI-H1651 has a relative viability of 1.
In the case of NCI-H1666, the relative viability is reported as 0.859.
NCI-H1734 gave a relative viability of 0.866.
In the case of NCI-H1755, the relative viability is reported as 0.973.
Work on NCI-H1793 yielded a relative viability of 0.453.
NCI-H1915 gave a relative viability of 0.757.
Cell Line NCI-H1944 has a relative viability of 1.13.
NCI-H1975 gave a relative viability of 1.19.
In the case of NCI-H1993, the relative viability is reported as 0.936.
Cell Line NCI-H2009 has a relative viability of 1.21.
In the case of NCI-H2023, the relative viability is reported as 0.844.
NCI-H2085 was tested, and the relative viability was 1.1.
NCI-H2087 was tested, and the relative viability was 0.864.
For NCI-H2126, the relative viability was 0.835.
Cell Line NCI-H2170 has a relative viability of 0.624.

Same assay, conditions: first compound 0.01581 µM
Cell Line LC-2-ad has a relative viability of 0.468.
LCLC-97TM1 was tested, and the relative viability was 0.347.
For LK-2, the relative viability was 0.803.
For LOU-NH91, the relative viability was 0.704.
LU99A was tested, and the relative viability was 0.805.
In the case of LXF-289, the relative viability is reported as 0.919.
With NCI-H23 the relative viability was 0.721.
NCI-H322M showed a relative viability of 1.14.
NCI-H441 was tested, and the relative viability was 0.453.
NCI-H460 gave a relative viability of 1.06.
NCI-H520 gave a relative viability of 1.1.
Work on NCI-H596 yielded a relative viability of 1.16.
